For 3 compounds, IC50 and median survival results are on record in patent publication US20240360417A1, “CELL THERAPEUTIC AGENT FOR CANCER TREATMENT AND COMBINATION THERAPY WITH SAME” (Cell&Brain Co., Ltd, priority 2015, published 2024).

Assay [1] relates to U87/GFP. Description: In vitro combination therapy of F cells + 5-FC with irinotecan (isobologram). Type of assay: cell-based. As to conditions: 144 h; U87/GFP co-cultured with F cells (MSC/CD), 6 days; read-out: IC50 values obtained by treatment alone.
Procedure: 10,000 U87/GFP and 10,000 F cells (MSC/CD) were cultured in a 12-well plate. From the next day, the cells were treated with Irinotecan (Sigma) at a concentration of 0 to 30 μM and the prodrug 5-FC at a concentration of 0 to 300 μM, and cultured for 6 days while replacing with a new medium containing the drug once every two days. On the 7th day, the culture solution was removed, 200 μl of 1× passive lysis buffer was then added to each well, and each well was allowed to stand at 4° C. for 10 minutes. The cell lysate was collected and centrifuged at 12,000 rpm for 5 minutes to obtain supernatant. 100 μl of the supernatant was transferred to a black 96-well plate in which light is blocked, and the intensity of fluorescence was measured under conditions of excitation 488 nm and emission 530 nm using a fluorimeter (GEMINI EM).
In assay [2] the test system is U87MG glioma cells expressing LacZ. Description: In vivo combination therapy with temozolomide, orthotopic brain tumor model. The conditions noted are these: survival measured up to 90 days.
Procedure: On the 6th days after transplantation of U87MG glioma cells expressing LacZ, the F cells prepared in Preparation Example 2 were suspended in a Plasma Solution A, followed by centrifugation at 500×g for 5 minutes. The supernatant was discarded, and the washing procedure was repeated twice. Then, the cell suspension was prepared to have a concentration of 3×10^5/6 μl. The cell suspension was transplanted at a rate of 0.3 μl/min at the brain coordinates of AP=+0.5 mm, ML=−1.8 mm, and DV=−3 mm. From the next day after the cell transplantation, 5-FC (15 mg/ml physiological saline) was intraperitoneally injected at a dose of 500 mg/kg for one week. […] On 28th day, brain tissues were obtained from 8 animals in each animal group and X-gal staining was performed in the same manner as in Example 2 to measure the size of brain tumor.

In general, IC50 refers to the point on the concentration scale where inhibition reaches its midpoint.

In the case of `Nc1nc(=O)[nH]cc1F` [5-FC, 5-fluorocytosine], in assay [1], the IC50 turned out to be 73.6 µM. With `CCc1c2c(nc3ccc(OC(=O)N4CCC(N5CCCCC5)CC4)cc13)-c1cc3c(c(=O)n1C2)COC(=O)[C@]3(O)CC` [irinotecan], the IC50 in assay [1] was determined as 3.2 µM. For `Cn1nnc2c(C(N)=O)ncn2c1=O` [temozolomide], in assay [2], the median survival is given as 42 days.
